These results are taken from ChEMBL document CHEMBL1154698, “Discovery of 3-aryl-4-isoxazolecarboxamides as TGR5 receptor agonists” (J Med Chem, 2009).

Series [1] in a line: Permeability in artificial membrane assay. The class given is ADME, cell membranes.
A short description of series [2]: Oral bioavailability in CD1 rat 5 mg/kg. Format: ADME, organism-based. Conditions: in vivo.
A short description of series [3]: Intrinsic clearance in dog hepatocytes. Format: ADME, cell-based, Canis lupus familiaris, Liver, Hepatocyte.
Another series concerns Monocyte. The experiment in a line: Inhibition of LPS-stimulated TNFalpha secretion in human primary monocytes. Format: functional, cell-based.
Series [4] deals with Canis familiaris. The experiment in a line: Decrease in portal vein glucose levels in intrajejeunally dosed conscious Beagle dog at 1 mg.kg co-administered with glucose challenge. Particulars: Canis lupus familiaris. Format: functional, organism-based.
The nature of series [5]: Half life in CD1 rat at 2.5 mg/kg, iv or 5 mg/kg, po. Format: ADME, organism-based. Conditions: in vivo.
The nature of series [6]: Volume of distribution at steady state in CD1 rat at 2.5 mg/kg, iv or 5 mg/kg, po. Particulars: in vivo, read-out: Vdss. The class given is ADME, organism-based.
A further series addresses Cytochrome P450 2C9 (Homo sapiens, UniProt P11712). The experiment in a line: Inhibition of CYP2C9. The class given is ADME.
For a further series, the system named is U2OS. Briefly: Increase in MRE/CRE-driven gene expression in human U2OS cells by luciferase reporter gene assay. The class given is functional, cell-based. Background: In a reporter assay the amount or activity of a reporter protein is the signal.
In a further series the target is Cytochrome P450 2D6 (Homo sapiens, UniProt P10635). Briefly: Inhibition of CYP2D6. Format: ADME.
Series [7] in a line: Aqueous solubility of the compound. Format: physicochemical. Conditions: buffer.
The nature of series [8]: Intrinsic clearance in rat hepatocytes. Format: ADME, cell-based, Liver, Hepatocyte.
Series [9] can be described thus: Clearance in CD1 rat at 2.5 mg/kg, iv or 5 mg/kg, po. Format: ADME, organism-based. Particulars: in vivo.
Series [10] can be described thus: Agonist activity at canine TGR5 expressed in melanophores assessed as melanosome dispersion by melanophore assay. Format: functional, Canis lupus familiaris.
A further series deals with Melanophore. Briefly: Induction of melanosome dispersion in melanophores. The class given is functional, cell-based. Conditions: Xenopus laevis.
Series [11] deals with T1, G-protein coupled bile acid receptor 1 (Rattus norvegicus, UniProt Q80T02).
T1 sequence (Q80T02 whole entry): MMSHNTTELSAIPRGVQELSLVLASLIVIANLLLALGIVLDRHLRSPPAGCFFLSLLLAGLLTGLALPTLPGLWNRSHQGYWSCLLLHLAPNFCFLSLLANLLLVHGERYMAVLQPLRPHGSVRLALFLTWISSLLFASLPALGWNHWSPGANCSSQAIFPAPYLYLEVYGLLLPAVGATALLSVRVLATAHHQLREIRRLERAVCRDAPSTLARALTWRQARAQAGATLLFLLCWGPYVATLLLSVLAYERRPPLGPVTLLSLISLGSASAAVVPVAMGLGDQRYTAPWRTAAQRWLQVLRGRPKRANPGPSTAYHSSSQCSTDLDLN
The experiment in a line: Agonist activity at rat TGR5 expressed in melanophores assessed as melanosome dispersion by melanophore assay. Format: functional.

Series [12] has as its system Canis familiaris. Briefly: Increase in GLP1 secretion in hepatic portal vein of intrajejeunally dosed conscious Beagle dog at 1 mg.kg co-administered with glucose challenge. Format: functional, organism-based. Conditions: Canis lupus familiaris.
Series [13] can be described thus: Half life in dog at 3 mg/kg, iv or 30 mg/kg, po. Format: ADME, organism-based, Canis lupus familiaris. Particulars: in vivo.
The nature of series [14]: Oral bioavailability in CD1 rat at 30 mg/kg. Format: ADME, organism-based. Particulars: in vivo.
Series [15] is described as follows: Clearance in dog at 3 mg/kg, iv or 30 mg/kg, po. Particulars: in vivo. The class given is ADME, organism-based, Canis lupus familiaris.
Series [16] in a line: Volume of distribution at steady state in dog at 3 mg/kg, iv or 30 mg/kg, po. Particulars: in vivo, read-out: Vdss. Format: ADME, organism-based, Canis lupus familiaris.
Series [17] is described as follows: Clearance in CD1 rat at 3 mg/kg, iv or 30 mg/kg, po. Format: ADME, organism-based. Particulars: in vivo.
A short description of series [18]: Oral bioavailability in dog at 30 mg/kg. Conditions: in vivo. The class given is ADME, organism-based, Canis lupus familiaris.
The nature of series [19]: Volume of distribution at steady state in CD1 rat at 3 mg/kg, iv or 30 mg/kg, po. Format: ADME, organism-based. Particulars: in vivo, read-out: Vdss.
Series [20] in a line: Half life in CD1 rat at 3 mg/kg, iv or 30 mg/kg, po. Format: ADME, organism-based. Particulars: in vivo.

Converted amounts (≈) assume the structure as drawn. The source made the active and inactive calls. A value given as a limit tells only on which side of the number the result lay.

Chain of Cytochrome P450 2C9 (P11712 whole entry): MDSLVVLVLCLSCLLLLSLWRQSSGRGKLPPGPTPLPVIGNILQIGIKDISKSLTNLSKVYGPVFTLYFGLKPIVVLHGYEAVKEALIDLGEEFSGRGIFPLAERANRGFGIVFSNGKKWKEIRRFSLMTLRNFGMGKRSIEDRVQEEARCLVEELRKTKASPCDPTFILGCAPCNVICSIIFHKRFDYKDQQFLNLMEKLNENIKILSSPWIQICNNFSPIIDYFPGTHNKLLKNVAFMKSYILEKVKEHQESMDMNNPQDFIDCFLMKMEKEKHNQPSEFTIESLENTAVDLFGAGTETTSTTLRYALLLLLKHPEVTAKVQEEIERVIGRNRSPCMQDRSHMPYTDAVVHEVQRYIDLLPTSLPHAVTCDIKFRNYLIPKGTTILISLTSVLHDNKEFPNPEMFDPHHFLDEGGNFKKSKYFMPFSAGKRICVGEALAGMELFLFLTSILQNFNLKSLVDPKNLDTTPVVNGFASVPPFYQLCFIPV
Chain of Cytochrome P450 2D6 (P10635 whole entry): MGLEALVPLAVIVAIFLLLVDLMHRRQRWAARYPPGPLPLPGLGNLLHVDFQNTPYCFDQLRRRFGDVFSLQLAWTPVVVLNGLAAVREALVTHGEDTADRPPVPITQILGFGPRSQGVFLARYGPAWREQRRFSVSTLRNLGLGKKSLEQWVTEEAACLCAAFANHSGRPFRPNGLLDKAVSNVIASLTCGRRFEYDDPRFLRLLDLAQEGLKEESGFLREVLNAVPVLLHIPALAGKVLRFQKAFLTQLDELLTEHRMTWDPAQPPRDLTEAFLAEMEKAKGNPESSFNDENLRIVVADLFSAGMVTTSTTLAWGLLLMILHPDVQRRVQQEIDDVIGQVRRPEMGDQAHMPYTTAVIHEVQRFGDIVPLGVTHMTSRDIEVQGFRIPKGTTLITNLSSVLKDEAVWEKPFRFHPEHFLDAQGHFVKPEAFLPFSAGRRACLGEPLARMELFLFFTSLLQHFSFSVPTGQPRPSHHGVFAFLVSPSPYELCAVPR

Take `Cc1onc(-c2ccccc2Cl)c1C(=O)N(C)c1ccc(Cl)cc1`: the permeability in series [1] was 422 nanometer/sec. In addition, the bioavailability (in general, the share of a dose that reaches the circulation, judged against a reference dose that is usually intravenous) in [2] was determined as 1%. Further, the CLint in [3] worked out at 90 mL/min/g; in series [8] it was 48 mL/min/g. Besides, the half-inhibitory concentration (IC50) (commonly the concentration at which inhibition is half-maximal) in the series with Monocyte is 0.158 µM; on Cytochrome P450 2C9, greater than 10 µM; at Cytochrome P450 2D6, greater than 10 µM. Also, the result in the series on Canis familiaris [4] and in the series with Canis familiaris [12] was Active. In [5], the half-life – broadly, the time needed for the level to fall by half in the phase considered – is 6.6 h. Further, the Vd in [6] was 7.1 L/kg. Besides, the 50% effective concentration (EC50) (commonly the concentration giving half of the maximal effect) is greater than 50.1 µM in the series with U2OS, 20 µM in the series with Melanophore and 2 µM in series [11]. In series [7], the solubility (as a rule, the dissolved amount per volume that the medium holds) was 246 µM (≈ 88.9 µg/mL). The compound further had a clearance in series [9] of 85 mL/min/kg. For the same compound, the pEC50 (as a rule, the EC50 on a negative log10 scale, so that one unit is a factor of ten) in [10] was 7.2.
Regarding `CCN(C(=O)c1c(-c2ccccc2Cl)noc1C)c1cccc(Cl)c1`, the permeability in [1] was 310 nanometer/sec. The same compound showed a solubility in [7] of 134 µM (≈ 50.3 µg/mL).
Turning to `Cc1ccc(N(C)C(=O)c2c(-c3ccccc3Cl)noc2C)cc1Cl`, the permeability in series [1] was 257 nanometer/sec. Further, the CLint in series [3] is 111 mL/min/g; in series [8], 54 mL/min/g. For the same compound, the values for the half-life in series [13] and in series [20] were 5.2 h and 8.7 h, respectively. Besides, the bioavailability was less than 1% in series [14] and 0.3% in [18]. In addition, the clearance in series [15] was found to be 39 mL/min/kg; in [17] it was 148 mL/min/kg. In addition, the Vd came to 8.6 L/kg in series [16] and 40 L/kg in [19]. The solubility in [7] is 112 µM (≈ 42 µg/mL).
